Data reported in PMC12150210 (RSC Advances, 2025).

Target: hCG (whole human chorionic gonadotropin) (Homo sapiens, UniProt P0DN86)
Assay: microscale thermophoresis
Assay type: binding

- Kd: 4.6 ± 3 µM
Structure (SMILES): CO[C@@]1(NC(=O)C2SC(=C(C(N)=O)C(=O)O)S2)C(=O)N2C(C(=O)O)=C(CSc3nnnn3C)CS[C@@H]21 (stereo partly drawn) [Cefotetan, (6R,7S)-7-[[4-(2-amino-1-carboxy-2-oxoethylidene)-1,3-dithietane-2-carbonyl]amino]-7-methoxy-3-[(1-methyltetrazol-5-yl)sulfanylmethyl]-8-oxo-5-thia-1-azabicyclo[4.2.0]oct-2-ene-2-carboxylic acid]
